The record followed here is US7605168B2 (Plexxikon, Inc., priority 2004, dated 2009).

A word on the IC50: it is the concentration at which inhibition is half-maximal.

In experiment [1] the target is T1, PDE4B: catalytic domain of human PDE4B from S152-S528 (Homo sapiens, UniProt Q07343).
T1 construct: The catalytic domain of human PDE4B from S152-S528; His6 (N, cleaved yes); thrombin cleavage site (N, cleaved yes); made in house; host or cells: E. coli BL21 (DE3) RIL
Briefly: PDE4 IC50 determination by Scintillation Proximity Assay (SPA), PDE4B catalytic domain. Type of experiment: biochemical. Conditions: [3H]cAMP SPA, 30 min at 30° C. The essentials:
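Human PDE4B catalytic domain (80 ng/ml) hydrolysed [3H]cAMP in 50 mM Tris pH 7.5, 8.3 mM MgCl, 1.7 mM EGTA, 0.01% BSA for 30 min at 30 °C. Reaction was stopped with yttrium silicate SPA beads in 18 mM ZnSO4, and bound [3H]AMP was counted by scintillation. IC50 came from non-linear regression.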

The target in experiment [2] is T2, PDE4B2: full-length human PDE4B2 isozyme (Homo sapiens, UniProt Q07343).
T2 construct: made in house; host or cells: baculovirus infected insect cells (pFastBacHT)
T2 sequence (Q07343 with tags, fused parts or gaps isoform Q07343-2): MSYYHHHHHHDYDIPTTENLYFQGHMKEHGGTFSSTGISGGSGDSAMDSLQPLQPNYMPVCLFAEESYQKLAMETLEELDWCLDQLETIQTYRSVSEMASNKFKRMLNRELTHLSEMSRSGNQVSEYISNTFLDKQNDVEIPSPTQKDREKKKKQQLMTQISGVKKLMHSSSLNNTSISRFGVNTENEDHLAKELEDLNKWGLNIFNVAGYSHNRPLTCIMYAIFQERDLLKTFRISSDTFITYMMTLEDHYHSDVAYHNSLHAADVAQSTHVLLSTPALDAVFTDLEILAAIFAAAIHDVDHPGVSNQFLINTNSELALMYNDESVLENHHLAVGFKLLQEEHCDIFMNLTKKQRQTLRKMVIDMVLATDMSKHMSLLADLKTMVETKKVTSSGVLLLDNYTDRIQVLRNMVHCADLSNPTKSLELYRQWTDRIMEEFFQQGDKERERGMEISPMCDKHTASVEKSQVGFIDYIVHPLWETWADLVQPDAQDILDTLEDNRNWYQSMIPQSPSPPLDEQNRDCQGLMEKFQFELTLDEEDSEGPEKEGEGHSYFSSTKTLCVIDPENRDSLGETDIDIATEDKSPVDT
Briefly: PDE4 IC50 determination by Scintillation Proximity Assay (SPA), full-length PDE4B2. Type of experiment: biochemical. To be noted: cell lysate, [3H]cAMP SPA. The method in brief: (§1)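 Unpurified enzyme from cell lysates (PDE4B2 2.5 μl, PDE4D5 0.083 μl of 50% glycerol stock/ml) hydrolysing [3H]cAMP in 50 mM Tris pH 7.5, 8.3 mM MgCl, 1.7 mM EGTA, 0.01% BSA, 30 min at 30 °C. Stopped with yttrium silicate SPA beads in 18 mM ZnSO4; bead-bound [3H]AMP counted. IC50 by non-linear regression.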
On the technique in general: Scintillation proximity formats need no separation of bound from free tracer.

Experiment [3] deals with T3, PDE4D: catalytic domain S316-V692 (Homo sapiens, UniProt Q08499).
T3 construct: pET15S PDE4D S316-V692-X; His6 (N, cleaved yes); thrombin cleavage site (N, cleaved yes); made in house; host or cells: E. coli BL21 (DE3) RIL
T3 sequence (Q08499 380-756): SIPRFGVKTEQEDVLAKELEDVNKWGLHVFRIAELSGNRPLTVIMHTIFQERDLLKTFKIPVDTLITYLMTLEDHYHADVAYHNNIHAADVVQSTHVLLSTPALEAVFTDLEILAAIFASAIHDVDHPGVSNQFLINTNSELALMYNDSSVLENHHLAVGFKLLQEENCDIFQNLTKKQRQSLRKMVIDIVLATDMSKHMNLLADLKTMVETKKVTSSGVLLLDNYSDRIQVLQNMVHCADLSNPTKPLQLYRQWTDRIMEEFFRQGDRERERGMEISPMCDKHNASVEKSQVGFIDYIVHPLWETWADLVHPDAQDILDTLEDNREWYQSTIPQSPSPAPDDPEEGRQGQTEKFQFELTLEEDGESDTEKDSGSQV
Briefly: PDE4 IC50 determination by Scintillation Proximity Assay (SPA), PDE4D catalytic domain. Type of experiment: biochemical. Conditions: [3H]cAMP SPA, 30 min at 30° C. As for the experimental part: IC50s were determined by Scintillation Proximity Assay (SPA). The principle of the assay is based on the fact that cAMP, the PDE4 substrate, binds weakly to Yittrium Silicate SPA beads, whereas AMP, the product of PDE4 hydrolysis binds strongly. Thus, the extent of PDE4 hydrolysis of a sample of [^3H]cAMP can be measured because only the [^3H]AMP produced by PDE4 hydrolysis will bind to the SPA beads and produce a scintillation signal.
[…] Enzyme was stored in 50% glycerol at −20°. See Example 144.
Compounds tested (see Tables 5 for compounds and results) were 3-fold serially diluted 11 times in DMSO from a starting concentration of 4 mM or 40 μM, depending on compound potency. 1 μl of each dilution was transferred into duplicate wells of a white polystyrene 384-well assay plate (Corning #3710). In addition to the compound dilutions, each assay plate contained control wells with 1 μl of DMSO (to define 0% enzyme inhibition) or 1 μl of 200 μM roflumilast (to define 100% enzyme inhibition). Using a Beckman FX robot, 10 μl of [^3H] cAMP (Amersham TRK559) at […] in assay buffer (50 mM Tris, pH 7.5; 8.3 mM MgCl; 1.7 mM EGTA; 0.01% BSA) was transferred to each assay well. Next, 10 μl of PDE4 enzyme in assay buffer was added and the plates were shaken for 30 s. at 1000 rpm to start the cAMP hydrolysis reaction. The concentrations of enzyme used were: PDE4B, 80 ng/ml; PDE4D, 4 ng/ml; PDE4B2, 2.5 μl of 50% glycerol stock/ml; PDE4D5 0.083 μl of 50% glycerol stock/ml. Assay plates were covered and incubated for 30 min. at 30° C. Reactions were stopped by robotic addition of 10 μl of 5 mg/ml SPA beads (Amersham RPNQ0013) in 18 mM ZnSO4. The assay plates were covered with clear plastic film, centrifuged for 1 min. at 1000 RPM to settle the SPA beads, and counted using a Wallac TriLux scintillation counter. IC50's were calculated from the raw assay data by non-linear regression curve fitting using the Assay Explorer software package from MDL.

For experiment [4], the target named is T4, PDE4D5: full-length human PDE4D5 isozyme (Homo sapiens, UniProt Q08499).
T4 construct: made in house; host or cells: baculovirus infected insect cells (pFastBacHT)
T4 sequence (Q08499 with tags, fused parts or gaps isoform Q08499-6): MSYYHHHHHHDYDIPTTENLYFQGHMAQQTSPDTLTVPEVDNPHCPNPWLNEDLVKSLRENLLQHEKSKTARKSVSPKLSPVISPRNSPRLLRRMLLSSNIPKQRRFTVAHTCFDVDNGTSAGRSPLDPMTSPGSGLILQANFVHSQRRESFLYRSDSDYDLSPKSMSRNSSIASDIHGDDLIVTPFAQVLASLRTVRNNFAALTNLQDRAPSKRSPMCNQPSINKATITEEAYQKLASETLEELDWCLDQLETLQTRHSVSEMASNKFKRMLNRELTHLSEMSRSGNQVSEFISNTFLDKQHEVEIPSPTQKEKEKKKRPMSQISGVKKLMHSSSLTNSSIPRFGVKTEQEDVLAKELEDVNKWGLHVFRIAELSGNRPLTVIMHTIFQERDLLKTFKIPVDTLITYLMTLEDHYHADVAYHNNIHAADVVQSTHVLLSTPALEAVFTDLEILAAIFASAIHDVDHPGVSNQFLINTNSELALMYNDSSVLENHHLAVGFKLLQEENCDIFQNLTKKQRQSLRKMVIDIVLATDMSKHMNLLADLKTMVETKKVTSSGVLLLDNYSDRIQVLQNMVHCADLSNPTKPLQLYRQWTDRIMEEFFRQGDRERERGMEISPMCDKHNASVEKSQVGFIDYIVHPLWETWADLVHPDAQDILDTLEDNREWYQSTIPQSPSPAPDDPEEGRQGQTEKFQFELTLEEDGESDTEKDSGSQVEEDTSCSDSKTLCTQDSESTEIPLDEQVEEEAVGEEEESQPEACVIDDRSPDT
Briefly: PDE4 IC50 determination by Scintillation Proximity Assay (SPA), full-length PDE4D5. In kind it is biochemical. To be noted: cell lysate, [3H]cAMP SPA. The essentials:
as §1

Experiment [5] has as its system TNF-α release from whole blood cultures stimulated with LPS. Briefly: IC50 by TNF alpha production upon stimulation of whole blood cultures with LPS. Type of experiment: cell-based. Conditions: human whole blood (buffy coat) culture, 100 ng/ml LPS, 4 hours; read-out: h TNFα IC50. The method in brief: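 Human buffy coat, diluted with 7 volumes of RPMI/2.5% heat-inactivated FBS, was preincubated with compound (8-point 1:3 series) for 1 h at 37 °C. It was then stimulated with 100 ng/ml LPS (final) for 4 h. Supernatant TNF-α was measured by sandwich ELISA at 450 nm, and IC50 was set between DMSO (0%) and PDE4-inhibitor (100%) controls.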

T1 sequence (Q07343 324-700): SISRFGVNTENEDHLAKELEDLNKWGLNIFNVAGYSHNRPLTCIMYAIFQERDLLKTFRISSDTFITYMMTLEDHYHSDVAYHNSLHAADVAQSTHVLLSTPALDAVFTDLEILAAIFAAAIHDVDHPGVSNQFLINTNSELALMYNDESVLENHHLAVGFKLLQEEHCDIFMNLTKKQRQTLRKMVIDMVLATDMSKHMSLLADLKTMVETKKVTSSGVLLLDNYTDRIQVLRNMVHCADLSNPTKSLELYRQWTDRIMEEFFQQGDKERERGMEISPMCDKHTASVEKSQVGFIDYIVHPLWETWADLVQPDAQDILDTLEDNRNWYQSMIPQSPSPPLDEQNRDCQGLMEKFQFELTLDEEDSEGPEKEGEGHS

As for `COc1ccc(-c2cn(S(=O)(=O)c3ccccc3)c3ncccc23)cc1OC1CCCC1` [Compound 101, 1-Benzenesulfonyl-3-(3-cyclopentyloxy-4-methoxy-phenyl)-1H-pyrrolo[2,3-b]pyridine], the IC50 in experiment [1] was less than 10 µM; in experiment [2], less than 10 µM; in experiment [3] it was no more than 10 µM; in experiment [4] it was less than 10 µM; in experiment [5] it was no more than 10 µM.
In the case of `COc1ccc(-c2cn(S(=O)(=O)Cc3cccc([N+](=O)[O-])c3)c3ncccc23)cc1OC` [Compound 18, 3-(3,4-dimethoxy-phenyl)-1-(3-nitro-phenylmethanesulfonyl)-1H-pyrrolo[2,3-b]pyridine], the IC50 was less than 10 µM in experiment [1]; less than 10 µM in experiment [2]; no more than 10 µM in experiment [3]; less than 10 µM in experiment [4]; no more than 10 µM in experiment [5].
For `CCOc1cc(N)ccc1C(=O)n1cc(-c2ccc(OC)c(OC)c2)c2cccnc21` [Compound 144, (4-Amino-2-ethoxy-phenyl)-[3-(3,4-dimethoxy-phenyl)-pyrrolo[2,3-b]pyridin-1-yl]-methanone], the IC50 in experiment [1] was less than 10 µM; in experiment [2], less than 10 µM; in experiment [3] it was no more than 10 µM; in experiment [4], less than 10 µM; in experiment [5], no more than 10 µM.
As to `COc1ccc(-c2cn(S(=O)(=O)c3cccc4cccnc34)c3ccccc23)cc1OC1CCCC1` [Compound 100, 8-[3-(3-Cyclopentyloxy-4-methoxy-phenyl)-indole-1-sulfonyl]-quinoline], the IC50 was less than 10 µM in experiment [1]; less than 10 µM in experiment [2]; no more than 10 µM in experiment [3]; less than 10 µM in experiment [4]; no more than 10 µM in experiment [5].
For `COc1ccc(-c2c(C)[nH]c3ncccc23)cc1OC` [Compound 143, 3-(3,4-Dimethoxy-phenyl)-2-methyl-1H-pyrrolo[2,3-b]pyridine], the IC50 in experiment [1] is less than 10 µM; in experiment [3] it was no more than 10 µM.
On to `CCOC(=O)c1cccc(NC(=O)n2cc(-c3ccc(OC)c(OC)c3)c3cccnc32)c1` [Compound 30, 3-[3-(3,4-Dimethoxy-phenyl)-pyrrolo[2,3-b]pyridine-1-carbonyl]-amino-benzoic acid ethyl ester], for which the IC50 was less than 10 µM in experiment [1], less than 10 µM in experiment [2], no more than 10 µM in experiment [3] and less than 10 µM in experiment [4].
With `COc1ccc(-c2cn(C(=O)c3c(OCC(F)(F)F)ccc4ccccc34)c3ncccc23)cc1OC1CCCC1` [Compound 124, [3-(3-Cyclopentyloxy-4-methoxy-phenyl)-pyrrolo[2,3-b]pyridin-1-yl]-[2-(2,2,2-trifluoro-ethoxy)-naphthalen-1-yl]-methanone], the IC50 in experiment [1] is less than 10 µM; in experiment [2], less than 10 µM; in experiment [3], no more than 10 µM; in experiment [4] it was less than 10 µM.
Turning to `COc1ccc(-c2cn(C(=O)Nc3ccccc3)c3ncccc23)cc1OC` [Compound 28, 3-(3,4-Dimethoxy-phenyl)-pyrrolo[2,3-b]pyridine-1-carboxylic acid phenylamide], the IC50 in experiment [1] was less than 10 µM; in experiment [2] it was less than 10 µM; in experiment [3], no more than 10 µM; in experiment [4], less than 10 µM.
On to `COc1ccc2c(c1)c(-c1ccc(OC)c(OC3CCCC3)c1)cn2S(=O)(=O)c1cccc2cc(C)cnc12` [Compound 97, 8-[5-Methoxy-3-(3-cyclopentyloxy-4-methoxy-phenyl)-indole-1-sulfonyl]-3-methyl-quinoline], for which the IC50 in experiment [1] was less than 10 µM; in experiment [2], less than 10 µM; in experiment [3] it was no more than 10 µM; in experiment [4], greater than 10 µM.
For the compound `COc1ccc(-c2cn(C(=O)Nc3cccc([N+](=O)[O-])c3)c3ncccc23)cc1OC` [Compound 38, 3-(3,4-Dimethoxy-phenyl)-pyrrolo[2,3-b]pyridine-1-carboxylic acid (3-nitro-phenyl)-amide], the IC50 in experiment [1] was less than 10 µM; in experiment [2], less than 10 µM; in experiment [4], greater than 10 µM; in experiment [5], greater than 10 µM.
As to `COc1ccc(NC(=O)n2cc(-c3ccc(OC)c(OC)c3)c3cccnc32)cc1Cl` [Compound 27, 3-(3,4-Dimethoxy-phenyl)-pyrrolo[2,3-b]pyridine-1-carboxylic acid (3-chloro-4-methoxy-phenyl)-amide], the IC50 in experiment [1] is less than 10 µM; in experiment [2], less than 10 µM; in experiment [4], less than 10 µM; in experiment [5] it was no more than 10 µM.
For the compound `COc1ccc(-c2cn(C(=O)Nc3ccc(Cl)c(Cl)c3)c3ncccc23)cc1OC` [Compound 37, 3-(3,4-Dimethoxy-phenyl)-pyrrolo[2,3-b]pyridine-1-carboxylic acid (3,4-dichloro-phenyl)-amide], the IC50 is less than 10 µM in experiment [1], less than 10 µM in experiment [2], less than 10 µM in experiment [4] and no more than 10 µM in experiment [5].
In the case of `COc1ccc(-c2cn(S(=O)(=O)c3cccc4ccccc34)c3ncccc23)cc1OC` [Compound 16, 3-(3,4-Dimethoxy-phenyl)-1-(naphthalene-1-sulfonyl)-1H-pyrrolo[2,3-b]pyridine], the IC50 in experiment [1] was less than 10 µM; in experiment [2], less than 10 µM; in experiment [4], less than 10 µM; in experiment [5], no more than 10 µM.
Turning to `COc1ccc(-c2cn(Cc3cc(-c4ccccc4)no3)c3ncccc23)cc1OC` [Compound 104, 3-(3,4-Dimethoxy-phenyl)-1-(3-phenyl-isoxazol-5-ylmethyl)-1H-pyrrolo[2,3-b]pyridine], the IC50 in experiment [1] is less than 10 µM; in experiment [2], less than 10 µM; in experiment [3] it was no more than 10 µM; in experiment [4], less than 10 µM.
Consider `COc1ccc(-c2cn(S(=O)(=O)c3ccc(-c4cnco4)cc3)c3ncccc23)cc1OC` [Compound 70, 3-(3,4-Dimethoxy-phenyl)-1-(4-oxazol-5-yl-benzenesulfonyl)-1H-pyrrolo[2,3-b]pyridine], for which the IC50 in experiment [1] was less than 10 µM; in experiment [2] it was less than 10 µM; in experiment [4], less than 10 µM; in experiment [5], no more than 10 µM.
On to `COc1ccc(-c2cn(S(=O)(=O)c3ccccc3)c3ncccc23)cc1OCc1ccccc1` [Compound 103, 1-Benzenesulfonyl-3-(3-benzyloxy-4-methoxy-phenyl)-1H-pyrrolo[2,3-b]pyridine], for which the concentration for half-maximal inhibition (IC50) was less than 10 µM in experiment [1], less than 10 µM in experiment [2], no more than 10 µM in experiment [3] and less than 10 µM in experiment [4].
As to `COc1ccc(-c2cn(S(=O)(=O)c3cccc4cccnc34)c3ccccc23)cc1OC` [Compound 21, 8-[3-(3,4-dimethoxy-phenyl)-indole-1-sulfonyl]-quinoline], the IC50 in experiment [1] was less than 10 µM; in experiment [2] it was less than 10 µM; in experiment [4], less than 10 µM; in experiment [5], no more than 10 µM.
Turning to `COc1ccc(-c2cn(S(=O)(=O)c3cccc(-c4cnco4)c3)c3ncccc23)cc1OC` [Compound 72, 3-(3,4-Dimethoxy-phenyl)-1-(3-oxazol-5-yl-benzenesulfonyl)-1H-pyrrolo[2,3-b]pyridine], the IC50 in experiment [1] is less than 10 µM; in experiment [2], less than 10 µM; in experiment [4], less than 10 µM; in experiment [5], no more than 10 µM.
